Reference: patent US10953100B2, “Compounds and therapeutic uses thereof” (priority 2015, dated 2021)

target: Anti-alpha galactosyl IgG antibody; assay: ELISA assay: streptavidin-captured biotin compound, binding of anti-alpha galactosyl IgG antibody; parameters: species or system human; settings: geometric mean with standard error in brackets; streptavidin plate, anti-alpha galactosyl IgG 0.5 μg/mL; read-out: Concentration at half maximal binding
Procedure: Compounds containing F (representing a carbohydrate molecule capable of binding to a human anti-alpha-galactosyl antibody) and L (as biotin) were assayed for binding at both ends of the compound using an enzyme-linked immunosorbent assay (ELISA). Streptavidin-coated plates captured biotin to the surface of the plate and the binding of anti-alpha galactosyl antibodies to the alpha-galactosyl moiety was reported by a secondary antibody labelled with HRP (Horse Radish Peroxidase).
Compounds were titrated 1.5 fold from a top dose of 50 nM in phosphate buffered saline (PBS) (Sigma D8537)+0.025% DMSO (Dimethyl Sulphoxide, Sigma D8418). Streptavidin immobilizer 96-well plates (nunc 436014) were coated with 100 μL of compound at room temperature for 2 hours shaking at 500 rpm. Plates were washed with 2×200 μL PBS-T (PBS with 0.05% Tween 20 (Sigma P9416)) and 1×200 μL PBS-T with a 5 minute incubation shaking at room temperature, prior to being blocked for 1 hour at room temperature with 1% Bovine Serum Albumin (BSA, Sigma A2153) in PBS-T. After removing the blocking buffer, 50 μL of Anti-alpha galactosyl IgG antibody (Anti-alpha-galactosyl antibody was purified from human IVIG (Gammagard) by affinity purification using an alpha-galactosyl-HSA (Human Serum Albumin) sepharose column by Rockland Immunochemicals Inc.) at 0.5 μg/mL in PBS-T+1% BSA and incubated shaking at room temperature for 1 hour.
Plates were washed 2×200 μL PBS-T and 3×200 μL PBS-T with a 5 minute incubation, shaking at room temperature before the addition of 50 μL 1:5000 Goat Anti-Human IgG-HRP (horseradish peroxidase) conjugate (Abcam ab97175). The plates were incubated shaking at room temperature for 1 hour before a final wash of 2×200 μL PBS-T and 3×200 μl PBS-T with a 5 minute incubation shaking at room temperature. 100 μL TMB buffer (3,3′,5,5′-tetramethylbenzidine, a chromogenic substrate for horseradish peroxidase) (Pierce 34021) was added to the plate and allowed to develop for 5-10 minutes before the samples were quenched with 50 μL 2M sulfuric acid (Sigma 258105). The absorbance was read at 450 nm on an Envision plate reader (Perkin Elmer). Results from wells (duplicate) were averaged and the 50% binding affinity calculated.
The concentration at which half-maximal binding is achieved is reported as a geometric mean with standard error in brackets. The number of independent experiments is also reported. In order to achieve a signal both ends of the molecule are required to bind (biotin to streptavidin and alpha-galactosyl to anti-alpha galactosyl antibodies) simultaneously.

Row | EC50 [nM] | SMILES
1 | 6.7 | CC(=O)NC1C(OCCCNC(=O)CCOCCOCCOCCOCCNC(=O)COc2cc(OCC(=O)NCCOCCOCCOCCOCCC(=O)NCCCOC3OC(CO)C(OC4OC(CO)C(O)C(OC5OC(CO)C(O)C(O)C5O)C4O)C(O)C3NC(C)=O)cc(-c3cc(OCC(=O)NCCOCCOCCOCCOCCC(=O)NCCCOC4OC(CO)C(OC5OC(CO)C(O)C(OC6OC(CO)C(O)C(O)C6O)C5O)C(O)C4NC(C)=O)cc(C(=O)NCCNC(=O)CCCCC4SCC5NC(=O)NC54)c3)c2)OC(CO)C(OC2OC(CO)C(O)C(OC3OC(CO)C(O)C(O)C3O)C2O)C1O (centres unmarked) [Example 18]
2 | 26.4 | CC(=O)NC1C(OCCCNC(=O)CCOCCOCCOCCOCCOCCOCCOCCOCCOCCOCCOCCOCCNC(=O)COc2ccc(-c3cc(OCC(=O)NCCOCCOCCOCCOCCOCCOCCOCCOCCOCCOCCOCCOCCC(=O)NCCCOC4OC(CO)C(OC5OC(CO)C(O)C(OC6OC(CO)C(O)C(O)C6O)C5O)C(O)C4NC(C)=O)cc(C(=O)NCCNC(=O)CCCCC4SCC5NC(=O)NC54)c3)cc2)OC(CO)C(OC2OC(CO)C(O)C(OC3OC(CO)C(O)C(O)C3O)C2O)C1O (centres unmarked) [Example 49]
3 | 19.7 | CC(=O)NC1C(OCCCNC(=O)CCOCCOCCOCCOCCNC(=O)COc2cc(OCC(=O)NCCOCCOCCOCCOCCC(=O)NCCCOC3OC(CO)C(OC4OC(CO)C(O)C(OC5OC(CO)C(O)C(O)C5O)C4O)C(O)C3NC(C)=O)cc(-c3cc(C(=O)NCCNC(=O)CCCCC4SCC5NC(=O)NC54)c(OCC(=O)NCCOCCOCCOCCOCCC(=O)NCCCOC4OC(CO)C(OC5OC(CO)C(O)C(OC6OC(CO)C(O)C(O)C6O)C5O)C(O)C4NC(C)=O)cc3OCC(=O)NCCOCCOCCOCCOCCC(=O)NCCCOC3OC(CO)C(OC4OC(CO)C(O)C(OC5OC(CO)C(O)C(O)C5O)C4O)C(O)C3NC(C)=O)c2)OC(CO)C(OC2OC(CO)C(O)C(OC3OC(CO)C(O)C(O)C3O)C2O)C1O (centres unmarked) [Example 51]
4 | 22.8 | CC(=O)NC1C(OCCCNC(=O)CCOCCOCCOCCOCCNC(=O)COc2cc(OCC(=O)NCCOCCOCCOCCOCCC(=O)NCCCOC3OC(CO)C(OC4OC(CO)C(O)C(OC5OC(CO)C(O)C(O)C5O)C4O)C(O)C3NC(C)=O)cc(-c3cc(OCC(=O)NCCOCCOCCOCCOCCC(=O)NCCCOC4OC(CO)C(OC5OC(CO)C(O)C(OC6OC(CO)C(O)C(O)C6O)C5O)C(O)C4NC(C)=O)cc(C(=O)NCCNC(=O)CCOCCOCCOCCOCCOCCOCCOCCOCCOCCOCCOCCOCCNC(=O)CCCCC4SCC5NC(=O)NC54)c3)c2)OC(CO)C(OC2OC(CO)C(O)C(OC3OC(CO)C(O)C(O)C3O)C2O)C1O (centres unmarked) [Example 54]
5 | 16.3 | CC(=O)NC1C(OCCCNC(=O)CCOCCOCCOCCOCCOCCOCCOCCOCCOCCOCCOCCOCCNC(=O)COc2cc(OCC(=O)NCCOCCOCCOCCOCCOCCOCCOCCOCCOCCOCCOCCOCCC(=O)NCCCOC3OC(CO)C(OC4OC(CO)C(O)C(OC5OC(CO)C(O)C(O)C5O)C4O)C(O)C3NC(C)=O)cc(-c3cc(OCC(=O)NCCOCCOCCOCCOCCOCCOCCOCCOCCOCCOCCOCCOCCC(=O)NCCCOC4OC(CO)C(OC5OC(CO)C(O)C(OC6OC(CO)C(O)C(O)C6O)C5O)C(O)C4NC(C)=O)cc(C(=O)NCCNC(=O)CCCCC4SCC5NC(=O)NC54)c3)c2)OC(CO)C(OC2OC(CO)C(O)C(OC3OC(CO)C(O)C(O)C3O)C2O)C1O (centres unmarked) [Example 56]

The next lines start with the molecule.

Row | SMILES | EC50 [nM]
6 | CC(=O)N[C@H]1[C@H](OCCCNCc2cccc(C(=O)NCCNC(=O)CCCC[C@@H]3SC[C@@H]4NC(=O)N[C@@H]43)c2)O[C@H](CO)[C@@H](O[C@@H]2O[C@H](CO)[C@H](O)[C@H](O[C@H]3O[C@H](CO)[C@H](O)[C@H](O)[C@H]3O)[C@H]2O)[C@@H]1O [Example 17, 3-(((3-(((2R,3R,4R,5S,6R)-3-Acetamido-5-(((2S,3R,4S,5S,6R)-3,5-dihydroxy-6-(hydroxymethyl)-4-(((2R,3R,4S,5R,6R)-3,4,5-trihydroxy-6-(hydroxymethyl)tetrahydro-2H-pyran-2-yl)oxy)tetrahydro-2H-pyran-2-yl)oxy)-4-hydroxy-6-(hydroxymethyl)tetrahydro-2H-pyran-2-yl)oxy)propyl)amino)methyl)-N-(2-(5-((3aS,4S,6aR)-2-oxohexahydro-1H-thieno[3,4-d]imidazol-4-yl)pentanamido)ethyl)benzamide] | 17.7
7 | CC(=O)NC1C(OCCCNC(=O)CCOCCOCCOCCOCCNC(=O)COc2cccc(C(=O)NCCNC(=O)CCOCCOCCOCCOCCOCCOCCOCCOCCOCCOCCOCCOCCNC(=O)CCCCC3SCC4NC(=O)NC43)c2)OC(CO)C(OC2OC(CO)C(O)C(OC3OC(CO)C(O)C(O)C3O)C2O)C1O (centres unmarked) [Example 19] | 11.8
8 | CC(=O)NC1C(OCCCNC(=O)CCOCCOCCOCCOCCNC(=O)COc2ccc(-c3cc(OCC(=O)NCCOCCOCCOCCOCCC(=O)NCCCOC4OC(CO)C(OC5OC(CO)C(O)C(OC6OC(CO)C(O)C(O)C6O)C5O)C(O)C4NC(C)=O)cc(C(=O)NCCNC(=O)CCCCC4SCC5NC(=O)NC54)c3)cc2)OC(CO)C(OC2OC(CO)C(O)C(OC3OC(CO)C(O)C(O)C3O)C2O)C1O (centres unmarked) [Example 20] | 14.8
9 | CC(=O)NC1C(OCCCNC(=O)CCOCCOCCOCCOCCNC(=O)COc2cc(OCC(=O)NCCOCCOCCOCCOCCC(=O)NCCCOC3OC(CO)C(OC4OC(CO)C(O)C(OC5OC(CO)C(O)C(O)C5O)C4O)C(O)C3NC(C)=O)cc(C(=O)NCCNC(=O)CCOCCOCCOCCOCCOCCOCCOCCOCCOCCOCCOCCOCCNC(=O)CCCCC3SCC4NC(=O)NC43)c2)OC(CO)C(OC2OC(CO)C(O)C(OC3OC(CO)C(O)C(O)C3O)C2O)C1O (centres unmarked) [Example 21] | 14.8
10 | CC(=O)NC1C(OCCCNC(=O)CCOCCOCCOCCOCCOCCOCCOCCOCCOCCOCCOCCOCCNC(=O)COc2ccc(-c3cc(OCC(=O)NCCOCCOCCOCCOCCOCCOCCOCCOCCOCCOCCOCCOCCC(=O)NCCCOC4OC(CO)C(OC5OC(CO)C(O)C(OC6OC(CO)C(O)C(O)C6O)C5O)C(O)C4NC(C)=O)cc(C(=O)NCCNC(=O)CCOCCOCCOCCOCCOCCOCCOCCOCCOCCOCCOCCOCCNC(=O)CCCCC4SCC5NC(=O)NC54)c3)cc2)OC(CO)C(OC2OC(CO)C(O)C(OC3OC(CO)C(O)C(O)C3O)C2O)C1O (centres unmarked) [Example 48] | 25
11 | CC(=O)N[C@H]1[C@H](OCCCNC(=O)CCOCCOCCOCCOCCOCCOCCOCCOCCOCCOCCOCCOCCNC(=O)COc2cccc(C(=O)NCCNC(=O)CCOCCOCCOCCOCCOCCOCCOCCOCCOCCOCCOCCOCCNC(=O)CCCC[C@@H]3SC[C@@H]4NC(=O)N[C@@H]43)c2)O[C@H](CO)[C@@H](O[C@@H]2O[C@H](CO)[C@H](O)[C@H](O[C@H]3O[C@H](CO)[C@H](O)[C@H](O)[C@H]3O)[C@H]2O)[C@@H]1O [Example 50] | 26.1
12 | CC(=O)N[C@H]1[C@H](OCCCNC(=O)CCOCCOCCOCCOCCNC(=O)COc2ccc(-c3cccc(C(=O)NCCNC(=O)CCOCCOCCOCCOCCOCCOCCOCCOCCOCCOCCOCCOCCNC(=O)CCCC[C@@H]4SC[C@@H]5NC(=O)N[C@@H]54)c3)cc2)O[C@H](CO)[C@@H](O[C@@H]2O[C@H](CO)[C@H](O)[C@H](O[C@H]3O[C@H](CO)[C@H](O)[C@H](O)[C@H]3O)[C@H]2O)[C@@H]1O [Example 52] | 34.9
13 | CC(=O)NC1C(OCCCNC(=O)CCOCCOCCOCCOCCNC(=O)COc2ccc(-c3cc(OCC(=O)NCCOCCOCCOCCOCCC(=O)NCCCOC4OC(CO)C(OC5OC(CO)C(O)C(OC6OC(CO)C(O)C(O)C6O)C5O)C(O)C4NC(C)=O)cc(C(=O)NCCNC(=O)CCOCCOCCOCCOCCOCCOCCOCCOCCOCCOCCOCCOCCNC(=O)CCCCC4SCC5NC(=O)NC54)c3)cc2)OC(CO)C(OC2OC(CO)C(O)C(OC3OC(CO)C(O)C(O)C3O)C2O)C1O (centres unmarked) [Example 53] | 34.9
14 | CC(=O)N[C@H]1[C@H](OCCCNC(=O)COc2cc(-c3cccc(C(=O)NCCNC(=O)CCCC[C@@H]4SC[C@@H]5NC(=O)N[C@@H]54)c3)cc(OCC(=O)NCCCO[C@@H]3O[C@H](CO)[C@@H](O[C@@H]4O[C@H](CO)[C@H](O)[C@H](O[C@H]5O[C@H](CO)[C@H](O)[C@H](O)[C@H]5O)[C@H]4O)[C@H](O)[C@H]3NC(C)=O)c2OCC(=O)NCCCO[C@@H]2O[C@H](CO)[C@@H](O[C@@H]3O[C@H](CO)[C@H](O)[C@H](O[C@H]4O[C@H](CO)[C@H](O)[C@H](O)[C@H]4O)[C@H]3O)[C@H](O)[C@H]2NC(C)=O)O[C@H](CO)[C@@H](O[C@@H]2O[C@H](CO)[C@H](O)[C@H](O[C@H]3O[C@H](CO)[C@H](O)[C@H](O)[C@H]3O)[C@H]2O)[C@@H]1O [Example 55] | 27.4
